US12049469B2, “Compound and structural body for detecting hydrogen sulfide” (CANON KABUSHIKI KAISHA, priority 2020, dated 2024)

Key:
[1] = Fluorescence intensity change of compound solution on addition of sodium sulfide (hydrogen sulfide donor) in phosphate-buffered saline; conditions: for ΔF0 (0 mM sodium sulfide), amount of change in fluorescence intensity / ΔF (0.2 mM sodium sulfide), amount of change in fluorescence intensity F2−F1: compound 5 μM in 1× phosphate-buffered saline pH 7.4; for ΔF0 (0 mM sodium sulfide), amount of change in fluorescence intensity: 10 minutes; for ΔF (0.2 mM sodium sulfide), amount of change in fluorescence intensity F2−F1: 10 minutes after addition; for ΔF − ΔF0, difference in amount of change in fluorescence intensity in presence or absence of sodium sulfide: compound 5 μM in PBS pH 7.4, 0.2 mM vs 0 mM sodium sulfide; for Sensitivity: grade based on ΔF−ΔF0, A to C acceptable, D unacceptable
Method: The compound 1 was added to 1× phosphate-buffered saline (3 mL, pH 7.4) at a concentration of 5 μM. The fluorescence intensity of the solution was immediately measured with a fluorescence spectrophotometer F-4500 (manufactured by Hitachi High-Technologies Corporation). Sodium sulfide serving as a hydrogen sulfide donor was then added to the solution at 0.2 mM. After standing for 10 minutes, the fluorescence intensity of the solution was measured. The fluorescence intensity before the addition of sodium sulfide was denoted as F1, and the fluorescence intensity 10 minutes after the addition of sodium sulfide was denoted as F2. The amount of change in fluorescence intensity (ΔF) due to the addition of sodium sulfide was calculated using the formula F2−F1. The concentration of sodium sulfide was changed to 0 mM, and the amount of change in fluorescence intensity (ΔF0) of the solution was calculated in the same manner. The difference in the amount of change in fluorescence intensity (ΔF−ΔF0) in the presence or absence of sodium sulfide was calculated.
The evaluation is based on the following criteria in the exemplary embodiments of the present disclosure. A to C are acceptable levels, and D is an unacceptable level.

[2] = Behaviour of detection material in aqueous solution (precipitation, water solubility); type: physicochemical
Excerpt: To detect hydrogen sulfide and metabolites in an aqueous specimen, such as a biological sample, the present inventors have examined whether the compound disclosed as a detection material in Non Patent Literature 1 can detect hydrogen sulfide in neutral phosphate-buffered saline.

Row | Structure (SMILES) | ΔF0 (0 mM sodium sulfide), amount of change in fluorescence intensity [1] | ΔF (0.2 mM sodium sulfide), amount of change in fluorescence intensity F2−F1 [1] | ΔF − ΔF0, difference in amount of change in fluorescence intensity in presence or absence of sodium sulfide [1] | Sensitivity [1] | Precipitate or aggregate formation in solution ([2]; neutral phosphate-buffered saline) | Water solubility (comparison) ([2]; compared with o-methyl fluorescein)
1 | CN(C)c1ccc(/N=N/c2ccc(C(=O)NCCCOC(=O)/C(C#N)=C/c3ccccc3C(=O)Oc3ccc4c(c3)Oc3cc(O)ccc3C43OC(=O)c4ccccc43)cc2)cc1 (stereo not drawn) [Compound 1] | 1.1 | 42.8 | 41.7 | A (ΔF−ΔF0 is 40 or more) |  | 
2 | COC(=O)/C(C#N)=C/c1ccccc1C(=O)Oc1ccc2c(c1)Oc1cc(OC)ccc1C21OC(=O)c2ccccc21 (stereo not drawn) [Compound 2, reference compound] | −0.4 | 11.4 | 11.8 | D (ΔF−ΔF0 is less than 15) | a precipitate or aggregate of the detection material is formed in the solution | 
3 | CN(C)c1ccc(/N=N/c2ccc(C(=O)NCCCOC(=O)/C(C#N)=C/c3ccccc3C(=O)Oc3ccc4c(c3)Oc3cc(O)ccc3C43OC(=O)c4cc(NC(=S)NCC(=O)O)ccc43)cc2)cc1 (stereo not drawn) [Compound 3] | 6.8 | 36.9 | 30.1 | B (ΔF−ΔF0 is 25 or more and less than 40) |  | 
4 | CN(C)c1ccc(/N=N/c2ccc(C(=O)NCCCOC(=O)/C(C#N)=C/c3ccccc3C(=O)Oc3cc4c(cc3Cl)C3(OC(=O)c5ccccc53)c3cc(Cl)c(O)cc3O4)cc2)cc1 (stereo not drawn) [Compound 4] | 4.9 | 10.3 | 5.4 | D (ΔF−ΔF0 is less than 15) |  | 
5 | COCCOCCOCCOCCNC(=S)Nc1ccc2c(c1)C(=O)OC21c2ccc(O)cc2Oc2cc(OC(=O)c3ccccc3/C=C(\C#N)C(=O)OCCCNC(=O)c3ccc(/N=N/c4ccc(N(C)C)cc4)cc3)ccc21 (stereo not drawn) [Compound 5] | 1.2 | 42.3 | 41.1 | A (ΔF−ΔF0 is 40 or more) |  | 
6 | CN(C)c1ccc(/N=N/c2ccc(C(=O)NCCCOC(=O)/C(C#N)=C/c3ccccc3C(=O)Oc3cc4c(cc3F)C3(OC(=O)c5ccccc53)c3cc(F)c(O)cc3O4)cc2)cc1 (stereo not drawn) [Compound 6] | 13.3 | 34.0 | 20.7 | C (ΔF−ΔF0 is 15 or more and less than 25) |  | 
7 | CN(C)c1ccc(/N=N/c2ccc(C(=O)NCCCOC(=O)/C(C#N)=C/c3ccccc3C(=O)Oc3ccc4c(c3)Oc3cc(O)ccc3C43OC(=O)c4c(Cl)c(Cl)c(Cl)c(Cl)c43)cc2)cc1 (stereo not drawn) [Compound 7] | 2.2 | 8.8 | 6.5 | D (ΔF−ΔF0 is less than 15) |  | 
8 | O=C1OC2(c3ccc(O)cc3Oc3cc(O)ccc32)c2ccccc21 [fluorescein] |  |  |  |  |  | higher water solubility than o-methyl fluorescein
